The target in one assay is kappa opioid receptors. The arrangement: key to Ke, EK: No agonist antagonism observed. Conditions: GPI, cited from earlier work; for Kb: agonist ethylketazocine, antagonist 100 or 200 nM, 15 min, read-out: Ke, EK.
In a further assay the target is mu opioid receptors. The arrangement: key to Ke, M: No agonist antagonism observed. Conditions: GPI, cited from earlier work; for Kb: read-out: Ke, M (morphine), agonist morphine, antagonist 100 or 200 nM, 15 min.
The test system of assay [1] is mouse vas deferens (MVD) and guinea pig ileum (GPI) preparations. The note with it: cited from earlier work.
The target of assay [2] is T1, delta opioid receptors (Mus musculus, UniProt P32300). The arrangement: key: No agonist antagonism observed. Conditions: MVD; compound 7 tested at 5 nM or less; cited from earlier work.
T1 sequence (P32300 whole entry): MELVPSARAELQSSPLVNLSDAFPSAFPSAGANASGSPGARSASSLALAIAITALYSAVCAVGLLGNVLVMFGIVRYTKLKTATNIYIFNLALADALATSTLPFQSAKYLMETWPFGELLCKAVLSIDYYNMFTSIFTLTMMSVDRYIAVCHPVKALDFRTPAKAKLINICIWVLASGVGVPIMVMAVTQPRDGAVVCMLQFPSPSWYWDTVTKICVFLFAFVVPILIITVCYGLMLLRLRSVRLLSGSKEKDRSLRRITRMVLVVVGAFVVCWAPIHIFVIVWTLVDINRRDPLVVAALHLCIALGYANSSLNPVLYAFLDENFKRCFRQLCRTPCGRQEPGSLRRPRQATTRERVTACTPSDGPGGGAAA
Assay [3] concerns the target T1, delta opioid receptors. The experiment in a line: antagonism of DADLE in the mouse vas deferens (MVD) preparation. Conditions: compared with 1 or its congeners.
Experimental: Mouse Vas Deferens (MVD). […] Both vasa deferentia were dissected out of mice and mounted singly through two platinum ring electrodes in a 10 ml organ bath. The bath contained Krebs bicarbonate solution that was continuously bubbled with 95% O2 and 5% CO2. The organ bath was maintained at 37° C. The tissue was attached to an isometric transducer and stimulated transmurally with rectangular pulses (0.1 Mz, 1 ms duration, supramaximal voltage). Drugs were added cumulatively to the bath in 10- to 50-μL amounts and washed out after noting their maximum effect.
The compounds were tested in vitro on the mouse vas deferens (MVD) and guinea pig ileum (GPI) preparations. […] The IC50 value was divided by the control IC50 value in the same tissue, and this IC50 ratio (DR) was employed to calculate the Ke value using the equation Ke=[antagonist]/(DR-1).
Another assay concerns the target T2, δ opioid receptor (Mus musculus, UniProt P32300).
T2 construct: Both vasa deferentia were dissected out of mice; from tissue; host or cells: mouse vas deferens (isolated, electrically stimulated)
The experiment in a line: antagonism of DADLE on MVD preparations (Example 7). Format: cell-based. The note with it: for IC50 ratio (DADLE): MVD, 100 nM of each compound, NTI = 20 nM, 15 min. How it is done:
2. Mouse Vas Deferens (MVD). […] The organ bath was maintained at 37° C.
Concentration-response curves were obtained in the absence (control) and the presence of the antagonist are expressed as IC50 values. […] Therefore, a high IC50 ratio represents a correspondingly high degree of antagonism at a particular receptor. […] Therefore, a low Ke represents a correspondingly high degree of binding at a particular receptor.

The next assay has as its system guinea pig ileum (GPI). Conditions: standard result; cited from earlier work.
A further assay addresses μ opioid receptor (Cavia porcellus, UniProt A0ACM8Q262). Briefly: antagonism of morphine in the GPI (Example 7). Format: cell-based, guinea pig. Conditions: morphine as agonist, read-out: Ke, μ (Table VII). How it is done: 1. Guinea Pig Ileal Longitudinal Muscle (GPI). Ilea from guinea pigs were taken approximately 10 cm from the ileocaecal junction, and a strip of longitudinal muscle with the myenteric plexus attached was prepared by method of Rang et al., Brit. J. Pharmacol., 22, 356 (1964), the disclosure of which is incorporated by reference herein. A 1 cm portion of this strip was then mounted between two platinum electrodes placed in a 10 ml organ bath and connected to an isometric transducer. Contractions were recorded on a polygraph. […] The organ bath was maintained at 36°-37° C. The longitudinal muscle strip was allowed to equilibrate with continuous stimulation for a minimum of 90 min.

The mark [4] stands for this setting: compound 7 tested at 5 nM or less.

Consider 25 compounds from patent publication US5631263A, “Use of delta opioid receptor antagonists to treat immunoregulatory disorders” (Minneapolis Medical Research Foundation, priority 1995, dated 1997).

Structures are written as SMILES. Structures can show the parent of a compound that is named as a salt.

T2 sequence (P32300 whole entry): as above
Sequence of μ opioid receptor (A0ACM8Q262 1-400): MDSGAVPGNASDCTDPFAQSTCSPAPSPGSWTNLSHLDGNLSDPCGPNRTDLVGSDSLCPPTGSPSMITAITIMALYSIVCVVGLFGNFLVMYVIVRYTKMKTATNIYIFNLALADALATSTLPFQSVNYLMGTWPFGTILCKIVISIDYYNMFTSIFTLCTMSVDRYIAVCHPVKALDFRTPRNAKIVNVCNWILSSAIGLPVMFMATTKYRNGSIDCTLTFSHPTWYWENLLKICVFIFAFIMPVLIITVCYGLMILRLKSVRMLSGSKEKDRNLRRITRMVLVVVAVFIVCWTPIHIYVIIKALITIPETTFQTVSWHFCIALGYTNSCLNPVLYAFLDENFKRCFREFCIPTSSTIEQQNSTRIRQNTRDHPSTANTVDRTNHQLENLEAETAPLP

`Cn1c2c(c3ccccc31)C[C@@]1(O)[C@H]3Cc4ccc(O)c5c4[C@@]1(CCN3CC1CC1)[C@H]2O5` [Compound 2]: the values for the Kb on kappa opioid receptors and at mu opioid receptors were 22.2 nM and 12.5 nM, respectively.
On to `Oc1ccc2c3c1O[C@H]1c4[nH]c5ccc(F)cc5c4C[C@@]4(O)[C@@H](C2)N(CC2CC2)CC[C@]314` [Compound 3], for which the Kb at kappa opioid receptors was 46.2 nM; at mu opioid receptors, 61.7 nM.
Turning to `COc1ccc2[nH]c3c(c2c1)C[C@@]1(O)[C@H]2Cc4ccc(O)c5c4[C@@]1(CCN2CC1CC1)[C@H]3O5` [Compound 4], the values for the Kb at kappa opioid receptors and on mu opioid receptors were 12.6 nM and 63 nM, respectively.
Take `Cc1ccc2[nH]c3c(c2c1)C[C@@]1(O)[C@H]2Cc4ccc(O)c5c4[C@@]1(CCN2CC1CC1)[C@H]3O5` [Compound 5]: the figures for the Kb at kappa opioid receptors and at mu opioid receptors were more than 250 nM and more than 160 nM, respectively.
Take `O=[N+]([O-])c1ccc2[nH]c3c(c2c1)C[C@@]1(O)[C@H]2Cc4ccc(O)c5c4[C@@]1(CCN2CC1CC1)[C@H]3O5` [Compound 6]: the Kb at kappa opioid receptors was not below 200 nM; at mu opioid receptors, 92 nM.
As for `CN1CC[C@]23c4c5ccc(O)c4O[C@H]2c2[nH]c4ccccc4c2C[C@@]3(O)[C@H]1C5` [Compound 7], the “antagonist activity of compound 7” value in assay [1] (at 5 nM) is “inactive”. Also, the agonist activity result in assay [1] (in words) was “partial agonist activity”. Besides, the “Ke, EK” value in the assay on kappa opioid receptors (setting [4]) is “e”. Moreover, in the assay with mu opioid receptors (setting [4]), the “Ke, M” value is “e”. Further, on delta opioid receptors [2], the “Ke, DADLE” value is recorded as “e”.
As for `Oc1ccc2c3c1O[C@H]1c4oc5ccccc5c4C[C@@]4(O)[C@@H](C2)N(CC2CC2)CC[C@]314` [Compound 8, (17-cyclopropylmethyl)-6,7-dehydro-3,14β-dihydroxy-4,5α-epoxy-6,7-2',3'-benzo[b]furanomorphinan], the Kb at kappa opioid receptors was 50.8 nM; at mu opioid receptors it was 30.8 nM. For the same compound, the “delta antagonist potency / selectivity in words” value on delta opioid receptors [3] was “less potent and less selective than 1 as a delta antagonist, nevertheless retains substantial delta antagonist activity”.
For the compound `Oc1ccc2[nH]c3c(c2c1)C[C@@]1(O)[C@H]2Cc4ccc(O)c5c4[C@@]1(CCN2CC1CC1)[C@H]3O5` [Compound 9], the Kb on kappa opioid receptors is 68.5 nM; on mu opioid receptors it was 27.2 nM.
As to `Oc1ccc2c3c1O[C@H]1c4[nH]c5cccc(F)c5c4C[C@@]4(O)[C@@H](C2)N(CC2CC2)CC[C@]314` [Compound 10], the Kb was more than 170 nM at kappa opioid receptors and more than 125 nM at mu opioid receptors.
With `Oc1ccc2c3c1O[C@H]1c4[nH]c5c(F)cccc5c4C[C@@]4(O)[C@@H](C2)N(CC2CC2)CC[C@]314` [Compound 11], the Kb on kappa opioid receptors was more than 330 nM; at mu opioid receptors, 5.3 nM.
Regarding `Cc1cccc2c3c([nH]c12)[C@@H]1Oc2c(O)ccc4c2[C@@]12CCN(CC1CC1)[C@H](C4)[C@]2(O)C3` [Compound 13], the Kb on kappa opioid receptors was more than 330 nM; on mu opioid receptors it was 19.1 nM.
For the compound `COc1cccc2c3c([nH]c12)[C@@H]1Oc2c(O)ccc4c2[C@@]12CCN(CC1CC1)[C@H](C4)[C@]2(O)C3` [Compound 14], at mu opioid receptors, the Kb was 35 nM.
With `Oc1ccc2c3c1O[C@H]1c4nc5ccccc5nc4C[C@@]4(O)[C@@H](C2)N(CC2CC2)CC[C@]314` [Compound 16], the Kb at kappa opioid receptors is 13.4 nM; at mu opioid receptors, 6.1 nM. Moreover, the “delta antagonist potency / selectivity in words” value at delta opioid receptors [3] is reported as “A similar relationship was observed”.
In the case of `Oc1ccc2c3c1O[C@H]1c4nc5ccccc5cc4C[C@@]4(O)[C@@H](C2)N(CC2CC2)CC[C@]314` [Compound 17], the results for the Kb on kappa opioid receptors and on mu opioid receptors were 16.3 nM and 11.3 nM, respectively. Besides, the “delta antagonist potency / selectivity in words” value on delta opioid receptors [3] is “A similar relationship was observed”.
Regarding `O=C1/C(=C/c2ccc([N+](=O)[O-])cc2)C[C@@]2(O)[C@H]3Cc4ccc(O)c5c4[C@@]2(CCN3CC2CC2)[C@H]1O5` [IIa, E-7-(4-Nitrobenzylideno)naltrexone hydrochloride], at δ opioid receptor, the Kb turned out to be 111 nM and the “IC50 ratio (DADLE)” value is 1.90.
For `O=C1/C(=C/c2cccc([N+](=O)[O-])c2)C[C@@]2(O)[C@H]3Cc4ccc(O)c5c4[C@@]2(CCN3CC2CC2)[C@H]1O5` [IIb] the same measures were 20 nM and 5.97.
Turning to `COc1ccc(/C=C2\C[C@@]3(O)[C@H]4Cc5ccc(O)c6c5[C@@]3(CCN4CC3CC3)[C@@H](O6)C2=O)cc1` [IIc], on δ opioid receptor, the Kb was 22 nM and the “IC50 ratio (DADLE)” value was found to be 5.52.
Consider `COc1ccccc1/C=C1\C[C@@]2(O)[C@H]3Cc4ccc(O)c5c4[C@@]2(CCN3CC2CC2)[C@@H](O5)C1=O` [IIe], for which, at δ opioid receptor, the Kb is 0.84 nM and the “IC50 ratio (DADLE)” value worked out at 120.
For `O=C1/C(=C/c2ccc(F)cc2)C[C@@]2(O)[C@H]3Cc4ccc(O)c5c4[C@@]2(CCN3CC2CC2)[C@H]1O5` [IIg] the same measures were 77 nM and 2.29.
For `O=C1/C(=C/c2cccc(F)c2)C[C@@]2(O)[C@H]3Cc4ccc(O)c5c4[C@@]2(CCN3CC2CC2)[C@H]1O5` [IIh] the same measures were 14 nM and 7.87.
The corresponding values for `O=C1/C(=C/c2ccccc2F)C[C@@]2(O)[C@H]3Cc4ccc(O)c5c4[C@@]2(CCN3CC2CC2)[C@H]1O5` [IIi] are 20 nM and 6.01.
For the compound `O=C1/C(=C/c2ccccc2Cl)C[C@@]2(O)[C@H]3Cc4ccc(O)c5c4[C@@]2(CCN3CC2CC2)[C@H]1O5` [IIj], on δ opioid receptor, the Kb turned out to be 0.76 nM and the “IC50 ratio (DADLE)” value was 130.
For `O=C1/C(=C/c2cccc3ccccc23)C[C@@]2(O)[C@H]3Cc4ccc(O)c5c4[C@@]2(CCN3CC2CC2)[C@H]1O5` [IIl] the same measures were 8.5 nM and 12.7.
For `O=C1/C(=C/c2ccc3ccccc3c2)C[C@@]2(O)[C@H]3Cc4ccc(O)c5c4[C@@]2(CCN3CC2CC2)[C@H]1O5` [IIm] the same measures were 9.4 nM and 11.6.
Take `O=C1CC[C@@]2(O)[C@H]3Cc4ccc(O)c5c4[C@@]2(CCN3CC2CC2)[C@H]1O5` [Naltrexone, naltrexone, reference compound]: the “block of morphine's effects” value in the assay on guinea pig ileum (GPI) is “block morphine's effects”. Further, the Kb at μ opioid receptor was 1 nM.
